Experimental data reported in PubChem BioAssay AID248 (DTP/NCI, 2004).
Several values for one entry are separate records, joined by “and”; a condition that tells them apart may be missing. Equal entries are not always repeated. Inconclusive results and toxic doses are left out. No stated cut-off is given here; in the data, active means T/C of 150% or more; inactive means T/C below 125%.

Tested on: L1210 leukemia ip in BDF1 mice, survival T/C
Assay: NCI In Vivo Anticancer Drug Screen. Data for tumor model L1210 Leukemia (intraperitoneal) in B6D2F1 (BDF1) mice
Conditions: endpoint: mean survival time, higher = longer survival
Procedure, shortened: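 Ratio derived from survival: compound-dosed mice over vehicle-dosed mice, all bearing a transplantable tumor.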

[1] = dose: 100.0 mg/kg/injection, schedule: Q04DX003 (ip), vehicle: Klucel (hydroxypropylcellulose) (HPC)
[2] = dose: 200.0 mg/kg/injection, schedule: Q04DX003 (ip), vehicle: Klucel (hydroxypropylcellulose) (HPC)
[3] = dose: 400.0 mg/kg/injection, schedule: Q04DX003 (ip), vehicle: Klucel (hydroxypropylcellulose) (HPC)
[4] = dose: 100.0 mg/kg/injection, schedule: Q01DX001 (ip), vehicle: saline
[5] = dose: 200.0 mg/kg/injection, schedule: Q01DX001 (ip), vehicle: saline
[6] = dose: 400.0 mg/kg/injection, schedule: Q01DX001 (ip), vehicle: saline
[7] = dose: 100.0 mg/kg/injection, schedule: Q04DX003 (ip), vehicle: saline
[8] = dose: 200.0 mg/kg/injection, schedule: Q04DX003 (ip), vehicle: saline
[9] = dose: 400.0 mg/kg/injection, schedule: Q04DX003 (ip), vehicle: saline
[10] = dose: 100.0 mg/kg/injection, schedule: Q04DX003 (ip), vehicle: saline with Tween-80
[11] = dose: 200.0 mg/kg/injection, schedule: Q04DX003 (ip), vehicle: saline with Tween-80
[12] = dose: 400.0 mg/kg/injection, schedule: Q04DX003 (ip), vehicle: saline with Tween-80
[13] = dose: 100.0 mg/kg/injection, schedule: Q01DX009 (ip), vehicle: saline with Tween-80
[14] = dose: 200.0 mg/kg/injection, schedule: Q01DX009 (ip), vehicle: saline with Tween-80
[15] = dose: 400.0 mg/kg/injection, schedule: Q01DX009 (ip), vehicle: saline with Tween-80

Measured: T/C

NC(CSSCC(N)=NC1CCCCC1)=NC1CCCCC1
inactive: dose: 3.0 mg/kg/injection, schedule: Q01DX009 (ip), vehicle: saline 96 % of control and 103 % of control | dose: 6.0 mg/kg/injection, schedule: Q01DX009 (ip), vehicle: saline 106 % of control and 90 % of control | dose: 6.25 mg/kg/injection, schedule: Q04DX002 (ip), vehicle: saline with Tween-80 124 % of control | dose: 12.0 mg/kg/injection, schedule: Q01DX009 (ip), vehicle: saline 103 % of control and 104 % of control | dose: 12.5 mg/kg/injection, schedule: Q01DX001 (ip), vehicle: saline with Tween-80 94 % of control | dose: 12.5 mg/kg/injection, schedule: Q01DX009 (ip), vehicle: carboxymethylcellulose (CMC) 100 % of control and 105 % of control | dose: 12.5 mg/kg/injection, schedule: Q04DX002 (ip), vehicle: saline with Tween-80 109 % of control | dose: 25.0 mg/kg/injection, schedule: Q01DX001 (ip), vehicle: saline with Tween-80 100 % of control | dose: 25.0 mg/kg/injection, schedule: Q01DX009 (ip), vehicle: carboxymethylcellulose (CMC) 103 % of control | dose: 25.0 mg/kg/injection, schedule: Q04DX002 (ip), vehicle: carboxymethylcellulose (CMC) 96 % of control and 91 % of control | dose: 25.0 mg/kg/injection, schedule: Q04DX002 (ip), vehicle: saline with Tween-80 102 % of control | dose: 50.0 mg/kg/injection, schedule: Q04DX002 (ip), vehicle: carboxymethylcellulose (CMC) 95 % of control | dose: 100.0 mg/kg/injection, schedule: Q04DX003 (ip), vehicle: carboxymethylcellulose (CMC) 104 % of control | dose: 200.0 mg/kg/injection, schedule: Q04DX003 (ip), vehicle: carboxymethylcellulose (CMC) 96 % of control

S=C(c1ccc2ccccc2n1)N1CCOCC1
inactive: [1] 100 % of control | [2] 91 % of control | [3] 105 % of control

COC(=O)CCC(C(=O)OC)P(=O)(OC(C)C)OC(C)C (stereo unspecified)
inactive: [4] 96 % of control | [5] 102 % of control | [6] 86 % of control

COc1ccc(C(O)c2nnc(-c3ccccc3)nn2)cc1 (stereo unspecified)
inactive: dose: 100.0 mg/kg/injection, schedule: Q01DX001 (ip), vehicle: gum acacia 90 % of control | dose: 200.0 mg/kg/injection, schedule: Q01DX001 (ip), vehicle: gum acacia 120 % of control | dose: 400.0 mg/kg/injection, schedule: Q01DX001 (ip), vehicle: gum acacia 107 % of control

CC1(C)CCC2(C(=O)O)CCC3=C(C(CCl)CC4C3(C)CCC3C4(C)CC(O)C(O)C3(C)C(=O)O)C2C1 (stereo unspecified)
inactive: dose: 25.0 mg/kg/injection, schedule: Q01DX Z (ip), vehicle: carboxymethylcellulose (CMC) 96 % of control | dose: 50.0 mg/kg/injection, schedule: Q01DX Z (ip), vehicle: carboxymethylcellulose (CMC) 91 % of control | dose: 75.0 mg/kg/injection, schedule: Q01DX Z (ip), vehicle: carboxymethylcellulose (CMC) 97 % of control | dose: 125.0 mg/kg/injection, schedule: Q01DX Z (ip), vehicle: carboxymethylcellulose (CMC) 94 % of control

CC1=CC(=O)OC(C)(C)C1
inactive: [7] 97 % of control | [8] 96 % of control | [9] 99 % of control

CC(C)COC(=O)C(C)OC(=O)OCCOCCOC(=O)OC(C)C(=O)OCC(C)C (stereo unspecified)
inactive: [4] 100 % of control | [5] 102 % of control | [6] 100 % of control

O=[N+]([O-])c1ccc(Cl)cc1C1OCCO1
inactive: [4] 93 % of control | [5] 93 % of control | [6] 104 % of control

CCCCCCCCCCCCCCCC[N+]1(CCCC)CCOCC1
inactive: [1] 86 % of control | [2] 101 % of control

O=C1CC(=C2C(=O)c3ccccc3C2=O)c2ccccc21
inactive: [10] 95 % of control | [11] 97 % of control | [12] 106 % of control

O=[N+]([O-])c1cc2c3c(cccc3c1)CC2
inactive: [4] 95 % of control and 97 % of control | dose: 100.0 mg/kg/injection, schedule: Q04DX002 (ip), vehicle: saline 105 % of control | [5] 100 % of control | dose: 200.0 mg/kg/injection, schedule: Q04DX002 (ip), vehicle: saline 100 % of control | [6] 100 % of control and 110 % of control | dose: 400.0 mg/kg/injection, schedule: Q04DX002 (ip), vehicle: saline 101 % of control

CC(=O)Nc1ccccc1C(=O)O
inactive: [13] 100 % of control | [14] 97 % of control | [15] 100 % of control

COC(=O)c1cc(=O)c2c(=O)[nH]c(=O)[nH]c2[nH]1
inactive: [1] 101 % of control | [2] 95 % of control | [3] 100 % of control

CSc1ncnc2c1ncn2C1OC(CO)C(O)OC1O (stereo unspecified)
inactive: dose: 15.0 mg/kg/injection, schedule: Q01DX009 (ip), vehicle: saline 117 % of control | dose: 25.0 mg/kg/injection, schedule: Q01DX009 (ip), vehicle: saline 111 % of control | dose: 25.0 mg/kg/injection, schedule: Q04DX003 (ip), vehicle: Klucel (hydroxypropylcellulose) (HPC) 104 % of control | dose: 45.0 mg/kg/injection, schedule: Q01DX001 (ip), vehicle: saline 106 % of control | dose: 45.0 mg/kg/injection, schedule: Q01DX009 (ip), vehicle: saline 119 % of control | dose: 50.0 mg/kg/injection, schedule: Q04DX003 (ip), vehicle: Klucel (hydroxypropylcellulose) (HPC) 109 % of control | dose: 67.0 mg/kg/injection, schedule: Q01DX001 (ip), vehicle: saline 118 % of control | dose: 70.0 mg/kg/injection, schedule: Q01DX009 (ip), vehicle: saline 119 % of control | dose: 75.0 mg/kg/injection, schedule: Q01DX009 (ip), vehicle: saline 116 % of control | [1] 110 % of control | [5] 112 % of control

CCOCN1CCCC1
inactive: dose: 25.0 mg/kg/injection, schedule: Q01DX009 (ip), vehicle: saline with Tween-80 101 % of control | dose: 50.0 mg/kg/injection, schedule: Q01DX009 (ip), vehicle: saline with Tween-80 96 % of control | dose: 50.0 mg/kg/injection, schedule: Q04DX003 (ip), vehicle: saline with Tween-80 91 % of control | dose: 100.0 mg/kg/injection, schedule: Q01DX001 (ip), vehicle: saline with Tween-80 104 % of control | [13] 95 % of control | [10] 103 % of control | dose: 200.0 mg/kg/injection, schedule: Q01DX001 (ip), vehicle: saline with Tween-80 110 % of control

N=Cc1c(O)n(-c2ccccc2)c(=O)n(-c2ccccc2)c1=O
inactive: [13] 102 % of control | [14] 104 % of control | [15] 93 % of control

CCN(CC)c1ccc(N=Nc2cc(Cl)ccc2Cl)c(NC(=O)CCC(=O)O)c1
inactive: [10] 96 % of control | [11] 96 % of control | [12] 95 % of control

CCCCCCCCC/C(=N\Nc1ccc([N+](=O)[O-])cc1[N+](=O)[O-])c1ccccc1
inactive: dose: 100.0 mg/kg/injection, schedule: Q04DX003 (ip), vehicle: saline sonified 108 % of control | dose: 200.0 mg/kg/injection, schedule: Q04DX003 (ip), vehicle: saline sonified 98 % of control | dose: 400.0 mg/kg/injection, schedule: Q04DX003 (ip), vehicle: saline sonified 108 % of control

CCCCOc1ccc(C=Nc2ccc(CC)cc2)cc1
inactive: [13] 94 % of control | [14] 102 % of control | [15] 97 % of control

O=C(O)/C(Cc1cccc(=O)n1Cc1ccccc1)=N\O
inactive: dose: 75.0 mg/kg/injection, schedule: Q01DX001 (ip), vehicle: Klucel (hydroxypropylcellulose) (HPC) 97 % of control | dose: 150.0 mg/kg/injection, schedule: Q01DX001 (ip), vehicle: Klucel (hydroxypropylcellulose) (HPC) 97 % of control | dose: 300.0 mg/kg/injection, schedule: Q01DX001 (ip), vehicle: Klucel (hydroxypropylcellulose) (HPC) 94 % of control

CCc1c[n+]([O-])c(C)cc1[N+](=O)[O-]
inactive: dose: 100.0 mg/kg/injection, schedule: Q01DX009 (ip), vehicle: saline 108 % of control | [7] 101 % of control | dose: 200.0 mg/kg/injection, schedule: Q01DX009 (ip), vehicle: saline 101 % of control | [8] 122 % of control | [9] 95 % of control
